Results as given in US10745400B2, “Inhibition of BMP signaling, compounds, compositions and uses thereof” (Vanderbilt University, priority 2018, dated 2020).
Changes are numbered by the printed parent chain.

What was measured:
[1] = Intrinsic clearance, human; type: in vitro ADME; conditions: human
[2] = Intrinsic clearance, mouse; type: in vitro ADME; conditions: mouse
ALK1/ACVRL1 = ALK1/ACVRL1 (Homo sapiens, UniProt P37023); experiment: Kinase assay (33P-ATP filter-binding), ALK1; type: biochemical; conditions: read-out: Kinase Selectivity ALK1/ACVRL1
Sequence of ALK1/ACVRL1 (P37023 22-503): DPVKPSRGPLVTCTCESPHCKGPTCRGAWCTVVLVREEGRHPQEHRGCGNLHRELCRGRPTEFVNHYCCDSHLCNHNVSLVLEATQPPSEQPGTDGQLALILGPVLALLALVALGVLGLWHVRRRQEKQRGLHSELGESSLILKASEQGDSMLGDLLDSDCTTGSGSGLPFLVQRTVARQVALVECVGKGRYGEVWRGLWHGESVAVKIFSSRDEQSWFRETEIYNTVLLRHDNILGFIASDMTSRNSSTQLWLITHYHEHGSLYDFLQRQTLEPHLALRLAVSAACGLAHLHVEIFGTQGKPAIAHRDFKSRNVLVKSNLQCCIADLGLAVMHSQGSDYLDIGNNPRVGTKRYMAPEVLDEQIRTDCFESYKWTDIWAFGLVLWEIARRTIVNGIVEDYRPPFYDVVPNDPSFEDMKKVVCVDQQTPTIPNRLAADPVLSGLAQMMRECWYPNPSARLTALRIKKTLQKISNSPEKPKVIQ
Description: (§1) The kinase assays were carried out briefly as follows. Substrate was prepared in Base Reaction Buffer (20 mM Hepes (pH 7.5), 10 mM MgCl2, 1 mM EGTA, 0.02% Brij35, 0.02 mg/ml BSA, 0.1 mM Na3VO4, 2 mM DTT, 1% DMSO). The indicated kinases was delivered into the substrate solution and allowed to gently mix. Next, the specific compound was delivered in DMSO into the kinase mixture by Acoustic technology (Echo550; nanoliter range), and allowed to incubate for 20 minutes at room temperature. Next, ^33P-ATP was delivered into the reaction mixture to initiate the reaction and allowed to incubate at room temperature. After 2 hours, the reactions were spotted onto P81 ion exchange paper and the kinase activity is detected by the filter-binding method.

Protein binding, mouse = type: in vitro ADME
Protein binding, human = type: in vitro ADME
ALK2 (Q207D) = molecular target: T1, ALK2 (Q207D) (Homo sapiens, UniProt Q04771, Q207D); experiment: Kinase assay (33P-ATP filter-binding), ALK2 Q207D; type: biochemical; conditions: Q207D mutant, 20 mM; read-out: Kinase Selectivity ALK2 (Q207D, 20 mM)
T1 sequence (Q04771 21-509 Q207D): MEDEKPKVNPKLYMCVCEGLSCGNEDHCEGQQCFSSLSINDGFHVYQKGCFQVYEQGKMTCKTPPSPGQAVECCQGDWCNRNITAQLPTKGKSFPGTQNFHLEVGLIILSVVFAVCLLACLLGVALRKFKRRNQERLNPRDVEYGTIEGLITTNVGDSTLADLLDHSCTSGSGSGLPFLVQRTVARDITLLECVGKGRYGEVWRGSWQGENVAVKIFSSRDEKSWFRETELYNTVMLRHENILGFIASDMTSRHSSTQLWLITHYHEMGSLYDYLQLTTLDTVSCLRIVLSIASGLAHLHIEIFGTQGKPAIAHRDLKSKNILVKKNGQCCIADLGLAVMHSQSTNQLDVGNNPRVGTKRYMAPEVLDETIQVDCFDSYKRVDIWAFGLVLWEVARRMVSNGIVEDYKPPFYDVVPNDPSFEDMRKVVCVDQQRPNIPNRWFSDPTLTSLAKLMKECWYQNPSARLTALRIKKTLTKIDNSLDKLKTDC
Description: as §1

ALK2/ACVR1 = molecular target: T2, ALK2/ACVR1 (Homo sapiens, UniProt Q04771); experiment: Kinase assay (33P-ATP filter-binding), ALK2; type: biochemical; conditions: 20 mM; read-out: Kinase Selectivity ALK2/ACVR1 (20 mM)
T2 sequence (Q04771 21-509): T1 sequence (Q04771 21-509 Q207D) with D187Q
Description: as §1

ALK2 (R206H) = molecular target: T3, ALK2 (R206H) (Homo sapiens, UniProt Q04771, R206H); experiment: Kinase assay (33P-ATP filter-binding), ALK2 R206H; type: biochemical; conditions: R206H mutant, 20 mM; read-out: Kinase Selectivity ALK2 (R206H, 20 mM)
T3 sequence (Q04771 21-509 R206H): T1 sequence (Q04771 21-509 Q207D) with R186H, D187Q
Description: as §1

ALK3/BMPR1A = ALK3/BMPR1A (Homo sapiens, UniProt P36894); experiment: Kinase assay (33P-ATP filter-binding), ALK3; type: biochemical; conditions: 1 mM; read-out: Kinase Selectivity ALK3/BMPR1A (1 mM)
Sequence of ALK3/BMPR1A (P36894 24-532): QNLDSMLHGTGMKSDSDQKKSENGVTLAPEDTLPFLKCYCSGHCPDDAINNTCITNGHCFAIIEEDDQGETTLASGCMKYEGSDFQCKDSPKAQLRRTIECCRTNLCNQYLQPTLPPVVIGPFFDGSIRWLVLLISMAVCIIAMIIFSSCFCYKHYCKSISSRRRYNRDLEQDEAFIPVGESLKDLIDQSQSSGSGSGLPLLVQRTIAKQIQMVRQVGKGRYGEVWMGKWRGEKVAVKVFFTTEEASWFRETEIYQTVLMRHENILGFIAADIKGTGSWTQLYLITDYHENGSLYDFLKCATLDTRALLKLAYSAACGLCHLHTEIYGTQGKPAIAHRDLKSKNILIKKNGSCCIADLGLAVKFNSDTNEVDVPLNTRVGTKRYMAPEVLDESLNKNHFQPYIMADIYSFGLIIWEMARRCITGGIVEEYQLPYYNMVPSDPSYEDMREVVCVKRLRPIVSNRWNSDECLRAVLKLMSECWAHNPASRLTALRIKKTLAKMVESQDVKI
Description: as §1

[3] = tested on: BMP-responsive C2C12 mouse myoblast cells stimulated with BMP4; experiment: BMP4 cell assay (Id1 promoter-firefly luciferase reporter); type: cell-based; conditions: Mus musculus, C2C12, C2C12 cells, BMP4 50 ng/mL, overnight
Description: The BMP4 cell assay were carried out briefly as follows. Stably transfected BMP-responsive C2C12 mouse myoblast cells (containing the Idl promoter-firefly luciferase reporter) were seeded in 96-well plates and incubated overnight with the compounds and BMP4 (50 ng/mL). The cells were then lysed, and cell extracts were then subjected to the firefly luciferase assay using Steady-Glo luciferase assay kit (Promega). The results were normalized to cell titers, as measured using Cell Titer-Glo luminescence assay (Promega). […] Relative activity was quantified by the ratio of firefly to Renilla luciferase activities using the dual luciferase assay kit (Promega).

[4] = CL-Hep, value in parentheses, read-out: Intrinsic Clearance Human (CL-Hep)
[5] = read-out: Intrinsic Clearance Human
[6] = CL-Hep, value in parentheses, read-out: Intrinsic Clearance Mouse (CL-Hep)
[7] = read-out: Intrinsic Clearance Mouse

SMILES | CLint scaled [1, 4] [mL/min/kg] | CLint scaled [1, 5] [mL/min/kg] | CLint scaled [2, 6] [mL/min/kg] | CLint scaled [2, 7] [mL/min/kg] | IC50 (ALK1/ACVRL1) [nM] | Protein Binding (% Free) Mouse (Protein binding, mouse) [% Free] | Protein Binding (% Free) Human (Protein binding, human) [% Free] | IC50 (ALK2 (Q207D)) [nM] | IC50 (ALK2/ACVR1) [nM] | IC50 (ALK2 (R206H)) [nM] | IC50 (ALK3/BMPR1A) [nM] | IC50 [3] [nM]
Cc1cc(-c2cnc3cc(-c4ccc(C5COC(C)CN5)cc4)ccn23)c2ccccc2n1 (stereo not drawn) [Compound 14] | 16.5 | 93 | 50.3 | 114 | < 5.1 | 1.6 | 0.76 | < 5.1 | < 5.1 | < 5.1 | < 5.1 | –
c1cnc2c(-c3cnc4cc(-c5ccc(C6CNCCN6)cc5)ccn34)ccnc2c1 (stereo not drawn) [Compound 34] | 12.3 | 29.6 | < 31.9 | < 49.5 | 16.9 | 21.2 | 39.4 | < 5.1 | 6.2 | 7.5 | < 5.1 | –
Cc1cc(-c2cnc3cc(-c4ccc(C5COCCCN5)cc4)ccn23)c2cc(F)cc(F)c2n1 (stereo not drawn) [Compound 13] | 16.6 | 97.2 | < 32.9 | < 49.5 | 16 | 2.3 | 1.85 | < 5.1 | < 5.1 | < 5.1 | < 5.1 | –
Cc1cc(-c2cnc3cc(-c4ccc(C5COC(C)CN5)cc4)ccn23)c2cc(F)cc(F)c2n1 (stereo not drawn) [Compound 19] | 15.9 | 77.2 | 53.3 | 131 | 14.1 | 3.15 | 3.74 | < 5.1 | < 5.1 | < 5.1 | < 5.1 | –
Cc1cc(-c2cnc3cc(-c4ccc(C5CNCCN5)cc4)ccn23)c2ccccc2n1 (stereo not drawn) [Compound 12] | < 10.7 | < 23.1 | < 32.9 | < 49.5 | – | 4.94 | 13.6 | – | – | – | – | 13.5
